According to patent US8501715B2, “Oxidized lipids and uses thereof in the treatment of inflammatory diseases and disorders” (Vascular Biogenics Ltd., priority 2003, dated 2013):

Columns and labels:
[1] = tested on: Apo-E KO mice; assay: Aorta lesion (% from total area); assay type: in vivo; conditions: oral 1 mg/mouse, 5 feedings every other day every 4 weeks over 12 weeks; 24.5 week old mice; End
Source text: Assessment of Atherosclerosis: Quantification of atherosclerotic fatty streak lesions was done by calculating the lesion size in the aortic sinus as previously described (Paigen et al. Quantitative assessment of atherosclerotic lesions in mice. Atherosclerosis 1987; 68: […]) and by calculating the lesion size in the aorta. Briefly, after perfusion with saline Tris EDTA, the heart and the aorta were removed from the animals and the peripheral fat cleaned carefully. The upper section of the heart was embedded in OCT medium (10.24% w/w polyvinyl alcohol; 4.26% w/w polyethylene glycol; 85.50 w/w nonreactive ingredients) and frozen. […] Sections were evaluated for fatty streak lesions after staining with oil-red O. Lesion areas per section were scored on a grid (Rubin et al. Inhibition of early atherogenesis in transgenic mice by human apoplipoprotein A-I. Nature 1991; 353: 265-267) by an observer counting unidentified, numbered specimens. […]
Their effect on the triglyceride and cholesterol fractions of VLDL was also monitored by FPLC. […]
(§1) Mice were bled prior to feeding (Time 0), after the 2nd set of feeding and at the conclusion of the experiment (End) for determination of lipid profile, lipid fractionation and plasma collection. Atherosclerosis was assessed as described above in the aorta sinus and aorta. […] Weight was recorded every 2 weeks throughout the experiment. […]

[2] = FPLC analysis of triglyceride and cholesterol content of VLDL; assay type: in vivo; conditions: oral 1 mg/mouse, 3 sets over 12 weeks; measured 9 weeks from t=0; FPLC of pooled blood
Procedure: (§2) 24.5 weeks old Apo-E KO mice were fed 1 mg/mouse L-ALLE (triangle) (n=11), D-ALLE (inverted triangle) (n=9) or POVPC (square) (n=10) every other day for 5 days, at 4 weeks intervals over a 12 weeks period. Control mice were fed an identical volume (0.2 ml) and regimen of PBS (circle) (n=10). Triglyceride content (Tg, mg/ml) was measured 9 weeks from t=0, by enzymatic colorimetric method in the VLDL fractions following separation of pooled blood samples on FPLC, as described in the materials and methods section that follows.
as §2, with “Cholesterol” for “Triglyceride”, “(Cholesterol,” for “(Tg,”
FPLC Analysis: Fast Protein Liquid Chromatography analysis of cholesterol and lipid content of lipoproteins was performed using Superose 6 HR 10/30 column (Amersham Pharmacia Biotech, Inc, Peapack, N.J.) on a FPLC system (Pharmacia LKB. FRAC-200, Pharmacia, Peapack, N.J.). A minimum sample volume of 300 μl (blood pooled from 3 mice was diluted 1:2 and filtered before loading) was required in the sampling vial for the automatic sampler to completely fill the 200 μl sample loop. Fractions 10-40 were collected, each fraction contained 0.5 ml. A 250 μl sample from each fraction was mixed with freshly prepared cholesterol reagent or triglyceride reagent respectively, incubated for 5 minutes at 37° C. and assayed spectrophotometrically at 500 nm.
Their effect on the triglyceride and cholesterol fractions of VLDL was also monitored by FPLC. […] male, 24.5 week old Apo-E KO mice were divided into 5 groups. In group A (n=11) mice were fed with 1 mg/mouse L-ALLE suspended in 0.2 ml PBS, administered by gavage, as described above, every other day for 5 days. In group B (n=9) mice were fed with 1 mg/mouse D-ALLE suspended in 0.2 ml PBS, administered per os, as described above, every other day for 5 days. In group C (n=10) mice were fed with 1 mg/mouse POVPC suspended in 0.2 ml PBS, administered by gavage, as described above, every other day for 5 days. […]
as §1

[3] = tested on: T-cells from inguinal lymph node; assay: Proliferation assay (stimulation index) of lymph node cells exposed to Human ox-LDL; assay type: in vivo; conditions: oral 1 mg/mouse every other day for 5 days
Procedure: 6 week old male Apo-E KO mice were fed either 1 mg/mouse L-ALLE (L-ALLE) (n=2) or POVPC (POVPC) (n=3) in 0.2 ml PBS; or PBS alone (CONTROL) (n=3) every other day for 5 days. One week following the last feeding the mice were immunized with a single subcutaneous injection of 50 μg Human oxidized LDL antigen. 7 days later T-cells from inguinal lymph node were prepared as described in Materials and Methods section that follows, and exposed to the sensitizing Human ox-LDL antigen for in-vitro assessment of proliferation. Proliferation, indicating immune reactivity, is expressed as the ratio between incorporation of labeled thymidine into the T-cell's DNA in the presence and absence of human ox-LDL antigen (stimulation index, S.I.).
II. […]
Proliferation was assayed eight days after immunization with the oxidized LDL as follows: Spleens or lymph nodes were prepared by meshing the tissues on 100 mesh screens. […] Incomplete medium was added (10 ml), cells were centrifuge for 7 minutes at 1,700 rpm, resuspended in RPMI medium and counted in a haemocytometer at 1:20 dilution (10 μl cells+190 μl Trypan Blue). Proliferation was measured by the incorporation of [^3H]-Thymidine into DNA in triplicate samples of 100 μl of the packed cells (2.5×10^6 cells/ml) in a 96 well microtiter plate. […]

[4] = tested on: Apo-E KO mice; assay: Assessment of atherosclerosis: lesion area in the aortic sinus; assay type: in vivo, mouse; conditions: oral 1 mg/mouse
[5] = tested on: apoE(−/−) mice; conditions: administration of alpha-galactosylceramide; Tupin et al.; cited from earlier work
[6] = tested on: apoE(−/−)CD1d(−/−) mice; conditions: administration of alpha-galactosylceramide; Tupin et al.; cited from earlier work

Structure (SMILES)	Aorta lesion (% from total area) [1] [% from total area]	cholesterol content of VLDL [2]	triglyceride content of VLDL [2]	change of Stimulation Index versus PBS ([3]; then immunization with Human oxidized LDL) [%]	Stimulation Index (SI) ([3]; then s.c. immunization with Human oxidized LDL, lymph nodes one week later)	Sinus Lesion ([4]; 5 feedings every other day every 4 weeks over 12 weeks, 24.5 week old mice, End (12 weeks after first feeding)) [μm^2]	protection from atheromatous progression ([4]; late stage, compared with lesion scores at 24.5 weeks)	increase in lesion size [5] [%]	Lesion size [6]
CCCCCCCCCCCCCCCCOC[C@@H](COP(=O)([O-])OCC[N+](C)(C)C)OCCCCC=O [L-ALLE, 3-hexadecyl-2-(5′-oxo-pentanyl)-sn-glycero-1-phosphocholine]	5.4	reduction	reduction	−78	7.3 ± 2.3	233056 ± 12746	nearly complete protection	–	–
CCCCCCCCCCCCCCCCCCCCCCCCCC(=O)N[C@@H](CO[C@H]1O[C@H](CO)[C@H](O)[C@H](O)[C@H]1O)[C@H](O)[C@H](O)CCCCCCCCCCCCCC [alpha-galactosylceramide]	–	–	–	–	–	–	–	50	did not affect lesion size
